Test results from ChEMBL document CHEMBL3758098, “3-(Dipropylamino)-5-hydroxybenzofuro[2,3-f]quinazolin-1(2H)-one (DPA-HBFQ-1) plays an inhibitory role on breast cancer cell growth and progression” (Eur J Med Chem, 2016).
Activity calls are given as the source filed them. The calls are words filed in the database; no cut-off is given here.

What was measured:
MDA-MB-231 [1] = test: Cytotoxicity against human MDA-MB-231 cells assessed as growth inhibition at 1 uM after 5 days by MTT assay relative to vehicle-treated control; format: functional
MCF7 [2] = test: Cytotoxicity against human MCF7 cells assessed as growth inhibition at 1 uM after 5 days by MTT assay relative to vehicle-treated control; format: functional; details: MCF7, 120 h, read-out: GI
[3] = Cytotoxicity against human MCF10A cells assessed as growth inhibition at 1 uM after 5 days by MTT assay relative to vehicle-treated control; format: cell-based; details: mcf-10a, 120 h
HeLa = test: Cytotoxicity against human HeLa cells assessed as growth inhibition by MTT assay; format: functional, cell-based
[4] = biological target: DNA topoisomerase 2-alpha (Homo sapiens) (UniProt P11388); details: 50 uM
Sequence of DNA topoisomerase 2-alpha (Homo sapiens) (P11388 whole entry): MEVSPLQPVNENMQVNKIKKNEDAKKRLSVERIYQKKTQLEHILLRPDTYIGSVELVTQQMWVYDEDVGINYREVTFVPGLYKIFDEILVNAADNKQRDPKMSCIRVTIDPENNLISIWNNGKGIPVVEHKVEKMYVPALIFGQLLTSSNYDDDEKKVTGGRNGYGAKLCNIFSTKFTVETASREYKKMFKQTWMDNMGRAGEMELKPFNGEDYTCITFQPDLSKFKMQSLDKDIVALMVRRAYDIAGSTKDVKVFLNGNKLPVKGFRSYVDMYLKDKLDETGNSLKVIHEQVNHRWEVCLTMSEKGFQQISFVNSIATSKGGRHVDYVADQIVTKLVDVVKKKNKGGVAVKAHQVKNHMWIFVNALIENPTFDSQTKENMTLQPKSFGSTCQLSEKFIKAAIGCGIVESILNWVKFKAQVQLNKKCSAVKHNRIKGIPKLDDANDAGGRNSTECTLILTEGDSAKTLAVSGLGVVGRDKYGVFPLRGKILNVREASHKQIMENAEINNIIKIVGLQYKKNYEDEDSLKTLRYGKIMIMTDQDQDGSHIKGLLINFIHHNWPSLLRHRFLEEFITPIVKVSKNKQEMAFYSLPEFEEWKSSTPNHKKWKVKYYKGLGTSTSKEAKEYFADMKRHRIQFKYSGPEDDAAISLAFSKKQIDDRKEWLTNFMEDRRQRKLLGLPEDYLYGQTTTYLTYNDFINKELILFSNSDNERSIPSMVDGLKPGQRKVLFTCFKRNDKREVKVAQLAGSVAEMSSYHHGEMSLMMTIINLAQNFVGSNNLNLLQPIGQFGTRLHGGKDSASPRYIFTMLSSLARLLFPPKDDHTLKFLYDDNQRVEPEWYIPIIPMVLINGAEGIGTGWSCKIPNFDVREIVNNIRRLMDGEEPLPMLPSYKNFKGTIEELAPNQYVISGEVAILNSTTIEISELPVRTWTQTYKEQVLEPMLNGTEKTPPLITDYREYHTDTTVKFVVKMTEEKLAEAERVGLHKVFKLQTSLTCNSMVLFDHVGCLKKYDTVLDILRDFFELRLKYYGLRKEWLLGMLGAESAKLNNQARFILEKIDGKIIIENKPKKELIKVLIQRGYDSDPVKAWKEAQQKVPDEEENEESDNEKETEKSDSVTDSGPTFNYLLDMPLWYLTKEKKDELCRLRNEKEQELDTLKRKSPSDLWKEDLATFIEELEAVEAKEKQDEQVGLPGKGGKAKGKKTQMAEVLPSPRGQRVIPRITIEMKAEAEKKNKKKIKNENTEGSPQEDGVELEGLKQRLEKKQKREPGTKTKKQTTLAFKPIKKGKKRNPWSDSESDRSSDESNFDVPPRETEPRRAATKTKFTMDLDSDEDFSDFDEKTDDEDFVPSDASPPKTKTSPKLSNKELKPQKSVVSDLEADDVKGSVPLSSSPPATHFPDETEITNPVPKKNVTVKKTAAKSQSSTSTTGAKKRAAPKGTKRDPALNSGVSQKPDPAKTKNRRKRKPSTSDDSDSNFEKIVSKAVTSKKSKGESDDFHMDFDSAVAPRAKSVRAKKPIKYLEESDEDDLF
Description: Inhibition of human topoisomerase 2 assessed as decatenation of kDNA at 50 uM after 30 mins by agarose gel electrophoresis

[5] = Cytotoxicity against human MCF-7 TR1 cells assessed as cell colony formation after 14 days by crystal violet staining-based assay; format: functional; details: MCF-7 TR1, 336 h
[6] = Cytotoxicity against human MCF10A cells assessed as cell viability after 5 days by MTT assay; format: cell-based; details: MCF-10A, 120 h
MDA-MB-231 [7] = test: Cytotoxicity against human MDA-MB-231 cells assessed as cell viability after 5 days by MTT assay; format: functional, cell-based; details: MDA-MB-231, 120 h
MCF7 [8] = test: Cytotoxicity against human MCF7 cells assessed as cell viability after 5 days by MTT assay; format: functional, cell-based; details: MCF7, 120 h
[9] = biological target: DNA topoisomerase 2-alpha (Homo sapiens) (UniProt P11388); details: 10 uM
Description: Inhibition of human topoisomerase 2 assessed as decatenation of kDNA at 10 uM after 30 mins by agarose gel electrophoresis

[10] = biological target: T1, DNA topoisomerase 1 (Homo sapiens) (UniProt P11387); test: Inhibition of recombinant human topoisomerase 1 assessed as relaxation of supercoiled pHOT1 at 10 uM after 30 mins by agarose gel electrophoresis
T1 sequence (whole entry): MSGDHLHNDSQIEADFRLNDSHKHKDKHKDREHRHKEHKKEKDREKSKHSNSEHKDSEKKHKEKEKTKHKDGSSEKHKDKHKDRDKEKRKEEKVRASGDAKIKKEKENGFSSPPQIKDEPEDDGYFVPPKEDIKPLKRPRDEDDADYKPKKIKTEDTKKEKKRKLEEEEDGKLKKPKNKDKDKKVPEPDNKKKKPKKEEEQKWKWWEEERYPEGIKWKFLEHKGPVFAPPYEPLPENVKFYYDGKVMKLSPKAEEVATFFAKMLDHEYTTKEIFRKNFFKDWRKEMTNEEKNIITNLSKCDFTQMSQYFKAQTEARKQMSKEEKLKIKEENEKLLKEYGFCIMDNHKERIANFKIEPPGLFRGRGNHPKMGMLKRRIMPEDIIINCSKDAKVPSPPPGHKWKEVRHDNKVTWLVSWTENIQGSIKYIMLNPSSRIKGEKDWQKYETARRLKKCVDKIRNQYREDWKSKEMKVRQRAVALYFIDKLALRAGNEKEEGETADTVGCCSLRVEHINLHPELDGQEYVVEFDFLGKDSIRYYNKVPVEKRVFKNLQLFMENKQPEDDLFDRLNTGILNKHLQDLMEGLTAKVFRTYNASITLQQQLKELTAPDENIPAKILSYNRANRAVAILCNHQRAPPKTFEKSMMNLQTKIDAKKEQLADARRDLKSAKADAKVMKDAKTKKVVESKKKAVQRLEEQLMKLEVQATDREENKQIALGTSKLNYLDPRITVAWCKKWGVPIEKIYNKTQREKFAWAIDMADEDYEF

[11] = biological target: T1, DNA topoisomerase 1 (Homo sapiens); test: Inhibition of recombinant human topoisomerase 1 assessed as relaxation of supercoiled pHOT1 at 50 uM after 30 mins by agarose gel electrophoresis
HepG2 = test: Cytotoxicity against human HepG2 cells assessed as growth inhibition by MTT assay; format: functional, cell-based
[12] = Cytotoxicity against rat R2C cells assessed as growth inhibition by MTT assay; format: functional, cell-based
Ishikawa = test: Cytotoxicity against human Ishikawa cells assessed as growth inhibition by MTT assay; format: functional, cell-based

| SMILES | growth inhibition (GI) (MDA-MB-231 [1]) | inhibition of growth at 1 µM (MCF7 [2]) | Activity [3] | IC50 (HeLa) | inhibition [4] | IC50 [5] | IC50 [6] | IC50 (MDA-MB-231 [7]) | IC50 (MCF7 [8]) | inhibition [9] | inhibition [10] | inhibition [11] | IC50 (HepG2) | IC50 [12] | IC50 (Ishikawa) |
| --- | --- | --- | --- | --- | --- | --- | --- | --- | --- | --- | --- | --- | --- | --- | --- |
| CCCCN(CCCC)c1nc2c(OC)cc3c4ccccc4oc3c2c(=O)[nH]1 | Active | 25% | Non-toxic |  |  |  |  |  |  |  |  |  |  |  |  |
| CCCN(CCC)c1nc2c(OC)cc3c4ccccc4oc3c2c(=O)[nH]1 | Active | 37% | Non-toxic |  |  |  |  |  |  |  |  |  |  |  |  |
| CCN(CC)c1nc2ccc3c4ccccc4oc3c2c(=O)[nH]1 | Active | 10% | Non-toxic |  |  |  |  |  |  |  |  |  |  |  |  |
| Cc1c2ccncc2c(C)c2c1[nH]c1ccccc12 [ELLIPTECINE] |  |  |  | 1000 nM | Active | 1750 nM | 1200 nM | 1820 nM | 1250 nM | Active | Active | Active | 2900 nM | 2000 nM | 1500 nM |
